The target in test [1] is BACE1 enzyme (Homo sapiens (Human), UniProt P56817). As to the kind of experiment: BACE1 Cell-Free Assay (fluorescence polarization, cleavage of synthetic APP substrate). As to conditions: geometric mean of 2-3 determinations; Examples 32-34 (footnote b) single determination. Type of test: biochemical. From the text: Beta-secretase (BACE) is one of the enzymes involved in the generation of the amyloid beta peptide found in the amyloid plaques of Alzheimer's Disease patients. This assay measures the inhibition of the beta-secretase enzyme as it cleaves a non-native peptide.
BACE1 enzyme, sequence (P56817 46-457): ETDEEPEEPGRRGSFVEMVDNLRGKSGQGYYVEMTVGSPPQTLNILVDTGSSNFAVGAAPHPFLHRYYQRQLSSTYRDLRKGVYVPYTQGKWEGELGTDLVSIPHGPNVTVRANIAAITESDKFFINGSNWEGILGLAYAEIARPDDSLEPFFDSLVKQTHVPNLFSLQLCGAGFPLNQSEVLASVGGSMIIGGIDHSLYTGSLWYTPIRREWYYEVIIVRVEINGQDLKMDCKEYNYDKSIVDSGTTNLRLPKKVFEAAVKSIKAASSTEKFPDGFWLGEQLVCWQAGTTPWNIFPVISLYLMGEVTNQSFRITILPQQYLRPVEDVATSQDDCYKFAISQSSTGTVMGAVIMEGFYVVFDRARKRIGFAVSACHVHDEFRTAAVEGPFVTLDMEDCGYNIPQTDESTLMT
A synthetic APP substrate that can be cleaved by beta-secretase having N-terminal biotin and made fluorescent by the covalent attachment of Oregon Green at the Cys residue is used to assay beta-secretase activity in the presence or absence of the inhibitory compounds. The substrate is Biotin-GLTNIKTEEISEISY^EVEFR-C[Oregon Green]KK-OH. The BACE1 enzyme is affinity purified material from conditioned media of CHO-K1 cells that have been transfected with a soluble BACE construct (BACE1deltaTM96His). Compounds are incubated in a log dose response curve from a top concentration of 100 μM with BACE1 enzyme and the biotinylated fluorescent peptide in 384-well black plates (Thermo Scientific #4318). BACE1 is at a final concentration of 0.1 nM with a final concentration of peptide substrate of 150 nM in a reaction volume of 30 μL assay buffer [100 mM sodium acetate, pH 4.5 (brought to pH with acetic acid), and 0.001% Tween-20]. Plates are covered and incubated for 3 hours at 37° C. The reaction is stopped with the addition of 30 μL of 1.5 μM Streptavidin (Pierce, #21125). After a 10 minute incubation at room temperature, plates are read on a PerkinElmer EnVision for fluorescence polarization (Ex485 nm/Em530 nm). The activity of the beta-secretase enzyme is detected by changes in the fluorescence polarization that occur when the substrate is cleaved by the enzyme.
For orientation: Fluorescence polarisation rises when a labelled molecule tumbles more slowly, as on binding a larger partner.

Test [2] concerns sAPPβ levels in H4 human neuroglioma cells over-expressing the wild-type human APP695. As to the kind of experiment: Whole Cell Assay (In Vitro sAPPβ Assay), TMB-ELISA. Type of test: cell-based. The following applies: 18 hours, geometric mean of 2-3 determinations, Examples 32-34 (footnote b) single determination. On the procedure: Whole Cell Assay (In Vitro sAPPpβ Assay):
H4 human neuroglioma cells over-expressing the wild-type human APP695 are treated for 18 hours with compound in a final concentration 1% DMSO. sAPPβ levels are measured using TMB-ELISA with capture APP N-terminal antibody (Affinity BioReagents, OMA1-03132), wild-type sAPPβ specific reporter p192 (Elan), and tertiary anti rabbit-HRP (GE Healthcare).

pIC50: −log10 of the molar value.

In general, pIC50 refers to the negative decadic logarithm of the IC50, by convention in mol/L. Read a low pIC50 as a high IC50. As for `NC1=N[C@@]2(c3ccc(F)cc3F)CO[C@@H](c3ccc4c(c3)OCO4)C[C@H]2CS1` [Example 27, (4aR,6R,8aS)-6-(1,3-benzodioxol-5-yl)-8a-(2,4-difluorophenyl)-4,4a, 5,6,8,8a-hexahydropyrano[3,4-d][1,3]thiazin-2-amine], the pIC50 in test [1] is 7.72; in test [2], 11.10.

With `C[C@H]1SC(N)=N[C@@]2(c3ccc(F)cc3F)CO[C@@H](c3ccc(C#N)cc3)C[C@@H]12` [Example 33, (4R,4aR,6R,8aS)-8a-(2,4-Difluorophenyl)-6-(4-cyanophenyl)-4-methyl-4,4a,5,6,8,8a-hexahydropyrano[3,4-d][1,3]thiazin-2-amine], the negative-log IC50 (pIC50) in test [1] is 7.96; in test [2] it was 11.22. In the same order, the values of `Cc1cc([C@H]2C[C@H]3CSC(N)=N[C@@]3(c3ccc(F)cc3F)CO2)ccc1F` [Example 8, (4aR,6R,8aS)-8a-(2,4-difluorophenyl)-6-(4-fluoro-3-methylphenyl)-4,4a,5,6,8,8a-hexahydropyrano[3,4-d][1,3]thiazin-2-amine] are 8.22 and 11.10. In the same order, the values of `NC1=N[C@@]2(c3ccc(F)cc3F)CO[C@@H](c3ccccc3F)C[C@H]2CS1` [Example 3, (4aR,6R,8aS)-8a-(2,4-difluorophenyl)-6-(2-fluorophenyl)-4,4a,5,6,8,8a-hexahydropyrano[3,4-d][1,3]thiazin-2-amine] are 7.07 and 10.26. In the same order, the values of `COc1ccc([C@H]2C[C@H]3CSC(N)=N[C@@]3(c3ccc(F)cc3F)CO2)cc1` [Example 16, (4aR,6R,8aS)-8a-(2,4-difluorophenyl)-6-(4-methoxyphenyl)-4,4a,5,6,8,8a-hexahydropyrano[3,4-d][1,3]thiazin-2-amine] are 7.54 and 10.74. Take `Cc1ccc([C@H]2C[C@H]3CSC(N)=N[C@@]3(c3ccc(F)cc3F)CO2)cc1` [Example 6, (4aR,6R,8aS)-8a-(2,4-difluorophenyl)-6-(4-methylphenyl)-4,4a,5,6,8,8a-hexahydropyrano[3,4-d][1,3]thiazin-2-amine]: the negative-log IC50 (pIC50) is 7.62 in test [1] and 11.30 in test [2].

As to `NC1=N[C@@]2(c3ccc(F)cc3F)CO[C@@H](c3ccc(C(F)(F)F)cc3)C[C@H]2CS1` [Example 14, (4aR,6R,8aS)-8a-(2,4-difluorophenyl)-6-[4-(trifluoromethyl)phenyl]-4,4a,5,6,8,8a-hexahydropyrano[3,4-d][1,3]thiazin-2-amine], the negative-log IC50 (pIC50) in test [2] is 9.75. `NC1=N[C@@]2(c3ccc(F)cc3F)CO[C@@H](c3ccc4c(c3)CCO4)C[C@H]2CS1` [Example 26, (4aR,6R,8aS)-8a-(2,4-difluorophenyl)-6-(2,3-dihydro-1-benzofuran-5-yl)-4,4a,5,6,8,8a-hexahydropyrano[3,4-d][1,3]thiazin-2-amine]: the figures for the pIC50 in test [1] and in test [2] were 8.22 and 11.30, respectively. In the same order, the values of `C[C@H]1SC(N)=N[C@@]2(c3ccc(F)cc3F)CO[C@@H](c3cccc(C#N)c3)C[C@@H]12` [Example 34, (4R,4aR,6R,8aS)-8a-(2,4-Difluorophenyl)-6-(3-cyanophenyl)-4-methyl-4,4a,5,6,8,8a-hexahydropyrano[3,4-d][1,3]thiazin-2-amine] are 7.85 and 11.40. In the same order, the values of `Cc1ccc(F)c([C@H]2C[C@H]3CSC(N)=N[C@@]3(c3ccc(F)cc3F)CO2)c1` [Example 11, (4aR,6R,8aS)-8a-(2,4-difluorophenyl)-6-(2-fluoro-5-methylphenyl)-4,4a,5,6,8,8a-hexahydropyrano[3,4-d][1,3]thiazin-2-amine] are 7.68 and 10.77.

As for `NC1=N[C@@]2(c3ccc(F)cc3F)CO[C@@H](c3ccc(Cl)cc3)C[C@H]2CS1` [Example 12, (4aR,6R,8aS)-6-(4-chlorophenyl)-8a-(2,4-difluorophenyl)-4,4a,5,6,8,8a-hexahydropyrano[3,4-d][1,3]thiazin-2-amine], the results for the pIC50 in test [1] and in test [2] were 7.82 and 10.80, respectively.

Consider `NC1=N[C@@]2(c3ccc(F)cc3F)CO[C@@H](c3ccc(F)cc3)C[C@H]2CS1` [Example 1, (4aR,6R,8aS)-8a-(2,4-difluorophenyl)-6-(4-fluorophenyl)-4,4a,5,6,8,8a-hexahydropyrano[3,4-d][1,3]thiazin-2-amine], for which the figures for the negative-log IC50 (pIC50) in test [1] and in test [2] were 7.85 and 11.22, respectively. On to `COC(C)c1ccc([C@H]2C[C@H]3CSC(N)=N[C@@]3(c3ccc(F)cc3F)CO2)cc1` (stereo partly drawn) [Example 28, (4aR,6R,8aS)-8a-(2,4-difluorophenyl)-6-[4-(1-methoxyethyl)phenyl]-4,4a,5,6,8,8a-hexahydropyrano[3,4-d][1,3]thiazin-2-amine], for which the results for the pIC50 in test [1] and in test [2] were 6.68 and 10.26, respectively.

For the compound `Cc1ccc([C@H]2C[C@H]3CSC(N)=N[C@@]3(c3ccc(F)cc3F)CO2)cc1F` [Example 9, (4aR,6R,8aS)-8a-(2,4-difluorophenyl)-6-(3-fluoro-4-methylphenyl)-4,4a,5,6,8,8a-hexahydropyrano[3,4-d][1,3]thiazin-2-amine], the values for the pIC50 in test [1] and in test [2] were 7.89 and 10.92, respectively. For `NC1=N[C@@]2(c3ccc(F)cc3F)CO[C@@H](c3ccc(OC(F)(F)F)cc3)C[C@H]2CS1` [Example 15, (4aR,6R,8aS)-8a-(2,4-difluorophenyl)-6-[4-(trifluoromethoxy)phenyl]-4,4a,5,6,8,8a-hexahydropyrano[3,4-d][1,3]thiazin-2-amine], the results for the negative-log IC50 (pIC50) in test [1] and in test [2] were 7.68 and 9.85, respectively.

As for `NC1=N[C@@]2(c3ccc(F)cc3F)CO[C@@H](c3cccc(C(F)(F)F)c3)C[C@H]2CS1` [Example 13, (4aR,6R,8aS)-8a-(2,4-difluorophenyl)-6-[3-(trifluoromethyl)phenyl]-4,4a,5,6,8,8a-hexahydropyrano[3,4-d][1,3]thiazin-2-amine], the negative logarithm of the IC50 (pIC50) was 7.01 in test [1] and 9.65 in test [2]. In the same order, the values of `NC1=N[C@@]2(c3ccc(F)cc3F)CO[C@@H](c3ccc(F)c(F)c3)C[C@H]2CS1` [Example 5, (4aR,6R,8aS)-8a-(2,4-difluorophenyl)-6-(3,4-difluorophenyl)-4,4a,5,6,8,8a-hexahydropyrano[3,4-d][1,3]thiazin-2-amine] are 8.00 and 11.15. In the same order, the values of `COCc1ccc([C@H]2C[C@H]3CSC(N)=N[C@@]3(c3ccc(F)cc3F)CO2)cc1` [Example 25, (4aR,6R,8aS)-8a-(2,4-difluorophenyl)-6-[4-(methoxymethyl)phenyl]-4,4a,5,6,8,8a-hexahydropyrano[3,4-d][1,3]thiazin-2-amine] are 7.66 and 11.00. In the same order, the values of `NC1=N[C@@]2(c3ccc(F)cc3F)CO[C@@H](c3cccc(F)c3)C[C@H]2CS1` [Example 2, (4aR,6R,8aS)-8a-(2,4-difluorophenyl)-6-(3-fluorophenyl)-4,4a,5,6,8,8a-hexahydropyrano[3,4-d][1,3]thiazin-2-amine] are 7.66 and 11.05.

As to `COc1cc([C@H]2C[C@H]3CSC(N)=N[C@@]3(c3ccc(F)cc3F)CO2)ccc1F` [Example 18, (4aR,6R,8aS)-8a-(2,4-difluorophenyl)-6-(4-fluoro-3-methoxyphenyl)-4,4a,5,6,8,8a-hexahydropyrano[3,4-d][1,3]thiazin-2-amine], the negative logarithm of the IC50 (pIC50) in test [1] is 6.67; in test [2] it was 10.02. In the same order, the values of `N#Cc1cccc([C@H]2C[C@H]3CSC(N)=N[C@@]3(c3ccc(F)cc3F)CO2)c1` [Example 29, 3-[(4aR,6R,8aS)-2-amino-8a-(2,4-difluorophenyl)-4,4a,5,6,8,8a-hexahydropyrano[3,4-d][1,3]thiazin-6-yl]benzonitrile] are 7.00 and 10.92.

With `COc1cc(F)cc([C@H]2C[C@H]3CSC(N)=N[C@@]3(c3ccc(F)cc3F)CO2)c1` [Example 21, (4aR,6R,8aS)-8a-(2,4-difluorophenyl)-6-(3-fluoro-5-methoxyphenyl)-4,4a,5,6,8,8a-hexahydropyrano[3,4-d][1,3]thiazin-2-amine], the negative logarithm of the IC50 (pIC50) is 6.47 in test [1] and 9.67 in test [2]. In the same order, the values of `Cc1cc(F)cc([C@H]2C[C@H]3CSC(N)=N[C@@]3(c3ccc(F)cc3F)CO2)c1` [Example 10, (4aR,6R,8aS)-8a-(2,4-difluorophenyl)-6-(3-fluoro-5-methylphenyl)-4,4a,5,6,8,8a-hexahydropyrano[3,4-d][1,3]thiazin-2-amine] are 7.80 and 10.42.
